Data reported in patent publication US8008258B2, “Cop 1 for treatment of inflammatory bowel diseases” (Yeda Research and Development Co. Ltd., priority 2003, dated 2011).
Marks after values point to notes of the source that are not given here.

How the values were obtained:
TNBS-induced colitis [1] = assay: TNBS-induced colitis in (SJL/JxBALB/c)F1 mice, various GA treatment modes; assay type: in vivo; conditions: for Decrease in the total macroscopic score versus untreated mice: 5 days after disease induction; for Decrease in the total macroscopic damage versus untreated mice: fed with GA
Experimental: (§1) Induction of cholitis in mice. TNBS-colitis was induced by rectal instillation of 2,4,6-trinitrobenzene sulfonic acid 5% (w/v), mixed with an equal volume of ethanol, into anesthetized mice (100 μl/mouse). Each treatment group included 6-12 mice. Mice that died before day 4 were considered as treatment casualties and were not taken into consideration.
Assessment of colitis. Weight changes and survival were monitored daily. […]
(§2) Macroscopic colonic scoring. Gross colonic damage was graded according to Reuter et al. (1996), using the combined values of the four standard macroscopic parameters: degree of colonic ulcerations (scale from 0—completely normal, to 10—most severe); intestinal and peritoneal adhesions (0 to 2); diarrhea (0 to 1); and thickness (0 to 1). The total score is the arithmetic sum of the four scores. The evaluation was performed in a blind procedure.
(§3) Microscopic scoring. Proximal, medial, and distal portions of colon were fixed in 10% phosphate-buffered formalin. Paraffin-embedded sections were stained with hematoxylin and eosin. The degree of histological damage and inflammation was graded according to Elson et al. (1996) using the combined values of the four microscopic parameters: extent (scale from 0—completely normal, to 2—involving more than one segment); inflammation (0—none to 3—severe); damage (0 to 3—severe transmural); and regeneration (0—complete re-eptihelization to 3—none). The total score is the arithmetic sum of the four scores. The evaluation was performed in a blind procedure.
Oral treatment—250 μg/day in PBS, fed by gastric intubation with an 18-gauge stainless steel feeding needle. Unless otherwise stated, feedings were performed on days-7, -5, -3, -1, 0, 2, 4 and 6, relative to the day of TNBS instillation. […]
To explore whether the beneficial effect of GA on TNBS-induced colitis is restricted to oral administration in the BALB/c strain or represents a more general effect, we studied the ability of GA administered by different routes and dosages to inhibit TNBS-induced colitis in two additional strains of mice.

TNBS-induced colitis [2] = assay: TNBS-induced colitis in BALB/c mice, oral GA treatment; assay type: in vivo; set-up: key to Macroscopic scoring of colon damage: Adhesion (max 2): adhesions score 0 to 2; key to Macroscopic scoring of colon damage: Diarrhea (max 1): diarrhea score 0 to 1; conditions: Average of three experiments; GA oral 250 μg/mouse every other day from day −7; scoring 7 or 8 days after induction
Experimental: as §1
Assessment of colitis. Weight changes and survival were monitored daily. Five to eight days following TNBS instillation, mice were sacrificed and macroscopic as well as microscopic colonic damage was evaluated.
as §2, §3
Oral treatment—250 μg/day in PBS, fed by gastric intubation with an 18-gauge stainless steel feeding needle. Unless otherwise stated, feedings were performed on days-7, -5, -3, -1, 0, 2, 4 and 6, relative to the day of TNBS instillation.
Colitis was induced by TNBS in 50% ethanol. […] Colonic scoring was performed 7 or 8 days after disease induction. Mice that died during the first 2 days (usually around 20% in all groups) were considered as treatment casualties and thus are not presented; each group contained 4-7 mice that survived after day 2.

[3] = scoring 5 days after disease induction, GA injected daily (from day −7), 2.5 mg/mouse SC
[4] = scoring 5 days after disease induction, GA injected daily (from day −14), 2.5 mg/mouse SC
[5] = scoring 5 days after disease induction, GA injected once day −14, 5 mg/mouse SC in ICFA
[6] = scoring 5 days after disease induction, GA oral every other day (from day −7), 0.25 mg, 8 feedings
[7] = scoring 11 days after disease induction, GA injected daily (from day −7), 2.5 mg/mouse SC
[8] = scoring 11 days after disease induction, GA injected daily (from day −14), 2.5 mg/mouse SC
[9] = scoring 11 days after disease induction, GA injected once day −14, 5 mg/mouse SC in ICFA
[10] = scoring 11 days after disease induction, GA oral every other day (from day −7), 0.25 mg, 8 feedings

In the case of glatiramer acetate [GA], the “Decrease in the total macroscopic score versus untreated mice” value (TNBS-induced colitis [1]; GA daily injections from day −7) is reported as 3.5 fold, the “Decrease in the total macroscopic score versus untreated mice” value (TNBS-induced colitis [1]; GA daily injections from day −14) is reported as 4.6 fold and the Complete weight restoration (TNBS-induced colitis [1]; GA injected daily (from day −7)) is reported as at most 6 days. For the same substance, the “Weight loss (of original weight)” value (TNBS-induced colitis [1]; GA injected daily (from day −7), 1 day after induction) was 4%, the Mortality (TNBS-induced colitis [1]; daily injection of GA (starting both 7 and 14 days before disease induction)) was “completely prevented mortality” and the “Reduction in the histological score” value (TNBS-induced colitis [1]; daily injections (starting either 7 or 14 days before disease induction)) was 6.6 fold. The “Inhibition of weight loss caused by TNBS colitis” value (TNBS-induced colitis [1]; daily-injected mice) was “major significant inhibition of weight loss”, the “Decrease in the total macroscopic damage versus untreated mice” value (TNBS-induced colitis [1]; observed 5 days after TNBS inoculation) was 1.8 fold and the “Decrease in the total macroscopic damage versus untreated mice” value (TNBS-induced colitis [1]; observed 11 days after TNBS inoculation) was 1.7 fold. For the same substance, the “Reduction in the histological score” value (TNBS-induced colitis [1]; oral treatment) was 1.8 fold, the Mortality rate (TNBS-induced colitis [1]; oral treatment with GA, by day 8) was 30% and the “Inhibition of weight loss caused by TNBS colitis” value (TNBS-induced colitis [1]; orally-treated mice) was “modest, statistically insignificant, inhibition of weight loss”. The “Macroscopic scoring of colon damage: Adhesion (max 2)” value (“Macroscopic scoring … (max 2)” for short) (TNBS-induced colitis [1]; [3]) was 0.8, the “Macroscopic scoring of colon damage: Diarrhea (max 1)” value (TNBS-induced colitis [1]; [3]) was 0.4 and the “Macroscopic scoring of colon damage: Thickness (max 1)” value (TNBS-induced colitis [1]; [3]) was 0.1. For the same substance, the “Macroscopic scoring of colon damage: Total Score (max 14)” value (“Macroscopic scoring … (max 14)” below) (TNBS-induced colitis [1]; [3]) was 2.7*, the “Macroscopic scoring of colon damage: Ulceration (max 10)” value (“Macroscopic scoring … (max 10)” below) (TNBS-induced colitis [1]; [3]) was 1.4 and the “Macroscopic scoring … (max 2)” value (TNBS-induced colitis [1]; [4]) was 0.4. The “Macroscopic scoring of colon damage: Diarrhea (max 1)” value (TNBS-induced colitis [1]; [4]) was 0.2, the “Macroscopic scoring of colon damage: Thickness (max 1)” value (TNBS-induced colitis [1]; [4]) was 0.1 and the “Macroscopic scoring … (max 14)” value (TNBS-induced colitis [1]; [4]) was 2.1*. The “Macroscopic scoring … (max 10)” value (TNBS-induced colitis [1]; [4]) was 1.4, the “Macroscopic scoring … (max 2)” value (TNBS-induced colitis [1]; [5]) was 1.4 and the “Macroscopic scoring of colon damage: Diarrhea (max 1)” value (TNBS-induced colitis [1]; [5]) was 0.3. For the same substance, the “Macroscopic scoring of colon damage: Thickness (max 1)” value (TNBS-induced colitis [1]; [5]) was 0.3, the “Macroscopic scoring … (max 14)” value (TNBS-induced colitis [1]; [5]) was 6.4 and the “Macroscopic scoring … (max 10)” value (TNBS-induced colitis [1]; [5]) was 4.4. For the same substance, the “Macroscopic scoring … (max 2)” value (TNBS-induced colitis [1]; [6]) was 1.0, the “Macroscopic scoring of colon damage: Diarrhea (max 1)” value (TNBS-induced colitis [1]; [6]) was 0.3 and the “Macroscopic scoring of colon damage: Thickness (max 1)” value (TNBS-induced colitis [1]; [6]) was 0.3. The “Macroscopic scoring … (max 14)” value (TNBS-induced colitis [1]; [6]) was 5.4, the “Macroscopic scoring … (max 10)” value (TNBS-induced colitis [1]; [6]) was 3.8 and the “Macroscopic scoring … (max 2)” value (TNBS-induced colitis [1]; [7]) was 0.0. For the same substance, the “Macroscopic scoring of colon damage: Diarrhea (max 1)” value (TNBS-induced colitis [1]; [7]) was 0.0, the “Macroscopic scoring of colon damage: Thickness (max 1)” value (TNBS-induced colitis [1]; [7]) was 0.0 and the “Macroscopic scoring … (max 10)” value (TNBS-induced colitis [1]; [7]) was 0.1. The “Macroscopic scoring … (max 2)” value (TNBS-induced colitis [1]; [8]) was 0.0, the “Macroscopic scoring of colon damage: Diarrhea (max 1)” value (TNBS-induced colitis [1]; [8]) was 0.0 and the “Macroscopic scoring of colon damage: Thickness (max 1)” value (TNBS-induced colitis [1]; [8]) was 0.0. For the same substance, the “Macroscopic scoring … (max 10)” value (TNBS-induced colitis [1]; [8]) was 0.1, the “Macroscopic scoring … (max 2)” value (TNBS-induced colitis [1]; [9]) was 1.0 and the “Macroscopic scoring of colon damage: Diarrhea (max 1)” value (TNBS-induced colitis [1]; [9]) was 0.2. For the same substance, the “Macroscopic scoring of colon damage: Thickness (max 1)” value (TNBS-induced colitis [1]; [9]) was 0.2, the “Macroscopic scoring … (max 14)” value (TNBS-induced colitis [1]; [9]) was 3.7 and the “Macroscopic scoring … (max 10)” value (TNBS-induced colitis [1]; [9]) was 2.3. The “Macroscopic scoring … (max 2)” value (TNBS-induced colitis [1]; [10]) was 0.6, the “Macroscopic scoring of colon damage: Diarrhea (max 1)” value (TNBS-induced colitis [1]; [10]) was 0.1 and the “Macroscopic scoring of colon damage: Thickness (max 1)” value (TNBS-induced colitis [1]; [10]) was 0.2. The “Macroscopic scoring … (max 14)” value (TNBS-induced colitis [1]; [10]) was 3.2, the “Macroscopic scoring … (max 10)” value (TNBS-induced colitis [1]; [10]) was 2.3 and the “Effect on macroscopic scores versus untreated controls” value (TNBS-induced colitis [1]; single injection of GA as a depot dose in ICFA) was “small and statistically insignificant”. The “Macroscopic scoring … (max 2)” value (TNBS-induced colitis [2]) was 0.4 and the “Macroscopic scoring of colon damage: Diarrhea (max 1)” value (TNBS-induced colitis [2]) was 0.2.
